Measured values published in ChEMBL document CHEMBL1147193, “New 5-substituted thiazolo[3,2-b][1,2,4]triazol-6-ones: synthesis and anticancer evaluation” (2007).
Blank lines part the entries; values can stand above or below the compound they belong to.

What was measured:
Type in all cases: functional
SF-268 [1] = assay: Anticancer activity against human SF268 cells assessed as growth of cells at 100 uM relative to untreated cells
T47D = assay: Growth inhibition of human T47D cells after 48 hrs by SRB protein assay; settings: for TGI: read-out: Log TGI (converted)
PC-3 = assay: Growth inhibition of human PC3 cells after 48 hrs by SRB protein assay; settings: PC-3, 48 h; for TGI: read-out: Log TGI (converted)
SK-MEL-28 = assay: Growth inhibition of human SK-MEL-28 cells after 48 hrs by SRB protein assay; settings: SK-MEL-28, 48 h; for TGI: read-out: Log TGI (converted)
HL-60 = assay: Growth inhibition of human HL60 cells after 48 hrs by SRB protein assay; settings: HL-60, 48 h; for TGI: read-out: Log TGI (converted)
LOX IMVI = assay: Growth inhibition of human LOX IMVI cells after 48 hrs by SRB protein assay; settings: for TGI: read-out: Log TGI (converted)
SF-268 [2] = assay: Growth inhibition of human SF268 cells after 48 hrs by SRB protein assay; settings: SF-268, 48 h; for TGI: read-out: Log TGI (converted)
SN12C = assay: Growth inhibition of human SN12C cells after 48 hrs by SRB protein assay; settings: for TGI: read-out: Log TGI (converted)
NCI-H460 = assay: Anticancer activity against human NCI-H460 cells assessed as growth of cells at 100 uM relative to untreated cells
CAKI-1 = assay: Growth inhibition of human CAKI1 cells after 48 hrs by SRB protein assay; settings: CAKI-1, 48 h; for TGI: read-out: Log TGI (converted)
SNB-19 = assay: Growth inhibition of human SNB19 cells after 48 hrs by SRB protein assay; settings: SNB-19, 48 h; for TGI: read-out: Log TGI (converted)
SW-620 = assay: Growth inhibition of human SW620 cells after 48 hrs by SRB protein assay; settings: SW-620, 48 h; for TGI: read-out: Log TGI (converted)
OVCAR-3 = assay: Growth inhibition of human OVCAR-3 cells after 48 hrs by SRB protein assay; settings: OVCAR-3, 48 h; for TGI: read-out: Log TGI (converted)
786-0 = assay: Growth inhibition of human 786-0 cells after 48 hrs by SRB protein assay; settings: 786-0, 48 h; for TGI: read-out: Log TGI (converted)
HT-29 = assay: Growth inhibition of human HT29 cells after 48 hrs by SRB protein assay; settings: HT-29, 48 h; for TGI: read-out: Log TGI (converted)
ACHN = assay: Growth inhibition of human ACHN cells after 48 hrs by SRB protein assay; settings: for TGI: read-out: Log TGI (converted)
DU-145 = assay: Growth inhibition of human DU145 cells after 48 hrs by SRB protein assay; settings: DU-145, 48 h
NCI-H23 = assay: Growth inhibition of human NCI-H23 cells after 48 hrs by SRB protein assay; settings: NCI-H23, 48 h; for TGI: read-out: Log TGI (converted)
A498 = assay: Growth inhibition of human A498 cells after 48 hrs by SRB protein assay; settings: A498, 48 h
SF-539 = assay: Growth inhibition of human SF539 cells after 48 hrs by SRB protein assay; settings: SF-539, 48 h
SR = assay: Growth inhibition of human SR cells after 48 hrs by SRB protein assay
OVCAR-4 = assay: Growth inhibition of human OVCAR4 cells after 48 hrs by SRB protein assay; settings: OVCAR-4, 48 h; for TGI: read-out: Log TGI (converted)
SNB-75 = assay: Growth inhibition of human SNB75 cells after 48 hrs by SRB protein assay; settings: SNB-75, 48 h; for TGI: read-out: Log TGI (converted)

GI50 (T47D): 23.4 µM
GI50 (PC-3): 18.2 µM
GI50 (SK-MEL-28): 91.2 µM
GI50 (HL-60): 46.8 µM
GI50 (SW-620): 38.9 µM
GI50 (OVCAR-3): 45.7 µM
GI50 (786-0): 15.5 µM
GI50 (HT-29): 43.7 µM
GI50 (ACHN): 17.4 µM
SMILES: CCOC(=O)c1ccc(NC(=O)CC2Sc3ncnn3C2=O)cc1 (stereo not drawn)
Activity (SF-268 [1]): 8%
TGI (T47D): 57.5 µM
TGI (PC-3): 40.7 µM
TGI (SK-MEL-28): > 100 µM
TGI (HL-60): > 100 µM
GI50 (LOX IMVI): 18.2 µM
TGI (LOX IMVI): 35.5 µM
GI50 (SF-268 [2]): > 100 µM
TGI (SF-268 [2]): > 100 µM
GI50 (SN12C): 26.3 µM
TGI (SN12C): 87.1 µM
Activity (NCI-H460): 0%
GI50 (CAKI-1): 63.1 µM
TGI (CAKI-1): > 100 µM
GI50 (SNB-19): > 100 µM
TGI (SNB-19): > 100 µM
TGI (SW-620): > 100 µM
TGI (OVCAR-3): > 100 µM
TGI (786-0): 28.8 µM
TGI (HT-29): > 100 µM
TGI (ACHN): 31.6 µM

GI50 (DU-145): 12.9 µM
GI50 (T47D): 21.4 µM
GI50 (NCI-H23): 17.8 µM
GI50 (PC-3): 11.7 µM
GI50 (SK-MEL-28): 16.6 µM
GI50 (HL-60): 0.537 µM
GI50 (SW-620): 14.8 µM
GI50 (OVCAR-4): 17.4 µM
GI50 (OVCAR-3): 13.2 µM
GI50 (786-0): 13.5 µM
GI50 (HT-29): 15.1 µM
GI50 (ACHN): 14.5 µM
SMILES: O=c1/c(=C/c2ccc(Cl)cc2)sc2ncnn12
Activity (SF-268 [1]): 11%
TGI (DU-145; read-out: Log TGI (converted)): 32.4 µM
TGI (T47D): > 100 µM
TGI (NCI-H23): 38 µM
TGI (PC-3): 28.8 µM
TGI (SK-MEL-28): 35.5 µM
TGI (HL-60): 2.04 µM
GI50 (LOX IMVI): 10.7 µM
TGI (LOX IMVI): 25.1 µM
GI50 (SF-268 [2]): 16.2 µM
TGI (SF-268 [2]): 58.9 µM
GI50 (SN12C): 15.5 µM
TGI (SN12C): 49 µM
Activity (NCI-H460): 3%
GI50 (A498): 19.1 µM
TGI (A498; read-out: Log TGI (converted)): 33.1 µM
GI50 (SF-539): 10.2 µM
TGI (SF-539; read-out: Log TGI (converted)): 21.9 µM
GI50 (CAKI-1): 19.5 µM
TGI (CAKI-1): 38.9 µM
GI50 (SNB-19): 16.2 µM
TGI (SNB-19): 32.4 µM
TGI (SW-620): 30.9 µM
GI50 (SR): 8.32 µM
TGI (SR; read-out: Log TGI (converted)): 33.9 µM
TGI (OVCAR-4): 63.1 µM
TGI (OVCAR-3): 30.2 µM
GI50 (SNB-75): 14.1 µM
TGI (SNB-75): 32.4 µM
TGI (786-0): 28.8 µM
TGI (HT-29): 58.9 µM
TGI (ACHN): 38.9 µM

GI50 (T47D): 39.8 µM
GI50 (NCI-H23): 0.115 µM
GI50 (PC-3): 72.4 µM
GI50 (SK-MEL-28): > 100 µM
GI50 (SW-620): 3.24 µM
GI50 (OVCAR-4): > 100 µM
GI50 (OVCAR-3): 34.7 µM
GI50 (786-0): 19.5 µM
GI50 (HT-29): > 100 µM
GI50 (ACHN): 21.9 µM
SMILES: O=C(CC1Sc2ncnn2C1=O)Nc1ccccc1 (stereo not drawn)
Activity (SF-268 [1]): 110%
TGI (T47D): > 100 µM
TGI (NCI-H23): 9.12 µM
TGI (PC-3): > 100 µM
TGI (SK-MEL-28): > 100 µM
GI50 (LOX IMVI): 25.7 µM
TGI (LOX IMVI): 53.7 µM
GI50 (SF-268 [2]): > 100 µM
TGI (SF-268 [2]): > 100 µM
GI50 (SN12C): 27.5 µM
TGI (SN12C): 67.6 µM
Activity (NCI-H460): 0%
GI50 (CAKI-1): 23.4 µM
TGI (CAKI-1): 49 µM
GI50 (SNB-19): > 100 µM
TGI (SNB-19): > 100 µM
TGI (SW-620): 44.7 µM
TGI (OVCAR-4): > 100 µM
TGI (OVCAR-3): > 100 µM
GI50 (SNB-75): 31.6 µM
TGI (SNB-75): 85.1 µM
TGI (786-0): 36.3 µM
TGI (HT-29): > 100 µM
TGI (ACHN): 41.7 µM
